Drawing on patent US20250197372A1 (priority 2020, published 2025), this text covers IC50 for 20 compounds.

One may read the IC50 as the concentration that gives 50% inhibition.

Holding throughout (type): biochemical
In assay [1] the target is rat sucrase (partially purified alpha-glucosidase from intestinal rat powder) (Rattus norvegicus, UniProt P23739). Put plainly: Intestinal alpha-glucosidase assay, sucrose substrate (Glucose GO Kit). In a few lines: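 Enzyme from intestinal rat powder, partially purified, is exposed to compound for 60 min at 37 °C. Disaccharide substrate (maltose or sucrose respectively) then reacts 30 min at 37 °C. Heat-stopped samples are assayed for glucose, and percent inhibition versus concentration gives IC50 via 4-PL.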
Sequence of rat sucrase (partially purified alpha-glucosidase from intestinal rat powder) (P23739 whole entry): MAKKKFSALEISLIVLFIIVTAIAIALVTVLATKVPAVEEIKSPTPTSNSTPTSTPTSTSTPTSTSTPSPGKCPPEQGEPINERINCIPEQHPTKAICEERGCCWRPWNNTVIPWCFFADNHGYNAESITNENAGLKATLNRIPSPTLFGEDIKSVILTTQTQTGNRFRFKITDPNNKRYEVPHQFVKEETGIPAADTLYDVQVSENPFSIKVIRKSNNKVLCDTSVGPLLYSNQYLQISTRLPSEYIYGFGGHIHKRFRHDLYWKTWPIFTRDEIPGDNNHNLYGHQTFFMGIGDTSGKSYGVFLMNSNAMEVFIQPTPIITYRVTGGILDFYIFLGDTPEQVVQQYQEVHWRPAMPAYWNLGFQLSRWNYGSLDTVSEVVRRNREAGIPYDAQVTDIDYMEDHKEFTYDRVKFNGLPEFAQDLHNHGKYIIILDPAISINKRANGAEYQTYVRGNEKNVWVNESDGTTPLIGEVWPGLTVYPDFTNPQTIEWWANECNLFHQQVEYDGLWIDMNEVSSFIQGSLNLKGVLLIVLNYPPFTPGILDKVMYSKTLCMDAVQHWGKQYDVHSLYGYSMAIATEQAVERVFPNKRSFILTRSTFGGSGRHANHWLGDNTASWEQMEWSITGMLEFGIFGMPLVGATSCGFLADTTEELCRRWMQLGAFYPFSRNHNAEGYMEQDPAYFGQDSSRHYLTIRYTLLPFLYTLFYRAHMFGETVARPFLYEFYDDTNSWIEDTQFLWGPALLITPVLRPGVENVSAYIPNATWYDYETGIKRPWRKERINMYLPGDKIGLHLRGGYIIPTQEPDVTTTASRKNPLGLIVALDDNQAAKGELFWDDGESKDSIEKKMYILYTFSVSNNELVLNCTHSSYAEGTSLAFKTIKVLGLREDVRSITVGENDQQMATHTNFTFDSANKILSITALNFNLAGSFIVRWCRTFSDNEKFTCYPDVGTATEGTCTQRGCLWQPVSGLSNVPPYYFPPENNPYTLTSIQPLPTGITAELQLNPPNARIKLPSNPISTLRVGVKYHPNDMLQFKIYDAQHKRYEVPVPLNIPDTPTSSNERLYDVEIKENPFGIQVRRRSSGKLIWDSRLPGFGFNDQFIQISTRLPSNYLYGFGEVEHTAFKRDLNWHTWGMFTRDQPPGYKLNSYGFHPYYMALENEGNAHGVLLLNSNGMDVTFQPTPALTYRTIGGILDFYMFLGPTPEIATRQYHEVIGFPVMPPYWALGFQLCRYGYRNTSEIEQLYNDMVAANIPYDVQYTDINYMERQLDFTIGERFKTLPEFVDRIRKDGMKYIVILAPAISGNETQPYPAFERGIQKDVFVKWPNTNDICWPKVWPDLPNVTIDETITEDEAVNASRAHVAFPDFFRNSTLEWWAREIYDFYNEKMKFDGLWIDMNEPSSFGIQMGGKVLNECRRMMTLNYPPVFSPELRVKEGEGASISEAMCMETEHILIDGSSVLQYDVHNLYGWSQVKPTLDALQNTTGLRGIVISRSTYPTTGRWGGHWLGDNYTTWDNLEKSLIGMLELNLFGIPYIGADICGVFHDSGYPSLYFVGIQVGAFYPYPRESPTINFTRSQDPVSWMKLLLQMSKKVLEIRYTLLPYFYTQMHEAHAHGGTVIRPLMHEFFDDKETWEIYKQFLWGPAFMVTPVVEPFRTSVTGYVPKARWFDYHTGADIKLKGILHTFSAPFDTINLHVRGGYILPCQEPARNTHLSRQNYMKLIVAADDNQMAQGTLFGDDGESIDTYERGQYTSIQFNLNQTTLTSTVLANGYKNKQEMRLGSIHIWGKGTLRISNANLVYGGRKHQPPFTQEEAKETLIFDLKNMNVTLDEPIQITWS

Assay [2] concerns the target T1, recombinant alpha-glucosidase II (murine full-length glucosidase II, alpha and beta subunits, Glu 2) (Mus musculus, UniProt Q8BHN3).
T1 construct: made in house; host or cells: HEK-293T cells transduced with BacMam viruses (75% alpha, 25% beta); protein harvested from culture supernatant
Briefly: Alpha-glucosidase II assay (4-methylumbelliferyl-alpha-D-pyranoside substrate, fluorescence). Particulars: Glucosidase 2; read-out: Glu2 IC50.

Assay [3] has as its target T2, recombinant human GBA (beta-glucocerebrosidase) (Homo sapiens, UniProt P04062).
T2 sequence (P04062 40-536): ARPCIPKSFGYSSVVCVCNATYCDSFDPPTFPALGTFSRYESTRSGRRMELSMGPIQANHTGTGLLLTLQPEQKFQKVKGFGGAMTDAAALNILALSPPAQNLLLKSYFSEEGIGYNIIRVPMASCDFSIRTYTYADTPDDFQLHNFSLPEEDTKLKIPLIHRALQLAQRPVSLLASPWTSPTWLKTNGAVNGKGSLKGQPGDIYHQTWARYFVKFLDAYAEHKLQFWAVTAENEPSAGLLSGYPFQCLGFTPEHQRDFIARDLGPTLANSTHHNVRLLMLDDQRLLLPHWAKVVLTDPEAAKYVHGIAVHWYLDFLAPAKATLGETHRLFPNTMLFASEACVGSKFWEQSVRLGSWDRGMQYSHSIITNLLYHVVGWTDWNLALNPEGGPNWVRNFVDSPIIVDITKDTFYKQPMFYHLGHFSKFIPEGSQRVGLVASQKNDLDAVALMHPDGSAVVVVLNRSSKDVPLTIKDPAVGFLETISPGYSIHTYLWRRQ
Briefly: Beta-glucocerebrosidase (GBA, glucosylceramidase) assay (4-methylumbelliferyl-beta-D-pyranoside substrate, fluorescence). In a few lines: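 Recombinant human GBA preincubated with compound dilutions 60 min at 37 °C, then 4-methylumbelliferyl-beta-D-pyranoside added for 60 min at 37 °C. Stopped at pH 10 (glycine/NaOH); fluorescence ex 365/em 440 nm. IC50 from 4-PL fit of inhibition relative to untreated enzyme.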

T1 sequence (O08795 15-521): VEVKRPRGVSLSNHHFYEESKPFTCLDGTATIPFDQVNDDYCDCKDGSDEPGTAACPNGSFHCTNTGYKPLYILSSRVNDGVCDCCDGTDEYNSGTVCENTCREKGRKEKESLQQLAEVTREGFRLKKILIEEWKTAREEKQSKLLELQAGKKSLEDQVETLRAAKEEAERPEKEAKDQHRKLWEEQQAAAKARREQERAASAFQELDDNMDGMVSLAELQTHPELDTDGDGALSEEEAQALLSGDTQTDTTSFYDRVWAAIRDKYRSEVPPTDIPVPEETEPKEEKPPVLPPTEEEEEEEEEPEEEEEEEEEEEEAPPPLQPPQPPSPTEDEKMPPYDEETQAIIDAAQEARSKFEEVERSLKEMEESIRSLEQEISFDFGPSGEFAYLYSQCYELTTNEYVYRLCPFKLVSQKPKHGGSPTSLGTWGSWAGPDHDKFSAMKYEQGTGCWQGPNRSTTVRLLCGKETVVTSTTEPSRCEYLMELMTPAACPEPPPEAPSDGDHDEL
T1 sequence (Q8BHN3 33-944): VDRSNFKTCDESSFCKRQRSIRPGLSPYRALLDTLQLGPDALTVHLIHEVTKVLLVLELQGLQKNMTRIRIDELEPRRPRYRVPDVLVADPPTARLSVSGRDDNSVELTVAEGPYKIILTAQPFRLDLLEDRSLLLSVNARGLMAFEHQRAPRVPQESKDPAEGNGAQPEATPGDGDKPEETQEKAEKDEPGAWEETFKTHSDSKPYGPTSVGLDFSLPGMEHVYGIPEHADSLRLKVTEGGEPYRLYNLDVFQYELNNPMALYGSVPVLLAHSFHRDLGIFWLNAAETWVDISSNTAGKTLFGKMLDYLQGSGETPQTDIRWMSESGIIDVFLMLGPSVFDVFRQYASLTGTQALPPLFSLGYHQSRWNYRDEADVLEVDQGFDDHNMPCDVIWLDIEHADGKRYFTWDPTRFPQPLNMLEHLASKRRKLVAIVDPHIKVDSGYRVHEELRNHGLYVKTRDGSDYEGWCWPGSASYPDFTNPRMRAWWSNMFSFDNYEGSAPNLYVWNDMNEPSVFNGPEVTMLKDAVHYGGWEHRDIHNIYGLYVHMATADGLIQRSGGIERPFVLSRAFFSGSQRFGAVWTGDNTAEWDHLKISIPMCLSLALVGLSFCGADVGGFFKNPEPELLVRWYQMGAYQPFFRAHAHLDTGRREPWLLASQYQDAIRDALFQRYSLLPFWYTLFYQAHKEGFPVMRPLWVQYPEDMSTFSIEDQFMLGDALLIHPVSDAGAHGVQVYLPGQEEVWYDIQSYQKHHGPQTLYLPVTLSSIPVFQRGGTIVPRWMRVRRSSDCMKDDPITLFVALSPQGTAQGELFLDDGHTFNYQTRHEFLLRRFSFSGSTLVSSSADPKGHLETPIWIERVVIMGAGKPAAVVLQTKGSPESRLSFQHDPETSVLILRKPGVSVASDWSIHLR

Take `O=[N+]([O-])c1cc(Br)ccc1NCc1ccc(CN2C[C@H](O)[C@@H](O)[C@H](O)[C@H]2CO)cc1` [Compound 1030, (2R,3R,4R,5S)-1-[(4-{[(4-bromo-2-nitrophenyl)amino]methyl}phenyl)methyl]-2-(hydroxymethyl)piperidine-3,4,5-triol]: the concentration for half-maximal inhibition (IC50) in assay [1] is below 1 nM; in assay [2], below 1 nM; in assay [3], 32300 nM.
Take `Cc1cc(NCc2cccc(CN3C[C@H](O)[C@@H](O)[C@H](O)[C@H]3CO)c2)cc(N2CCOCC2)c1` [Compound 1031, (2R,3R,4R,5S)-2-(hydroxymethyl)-1-{[3-({[3-methyl-5-(morpholin-4-yl)phenyl]amino}methyl)phenyl]methyl}piperidine-3,4,5-triol]: the results for the IC50 in assay [1], in assay [2] and in assay [3] were 288 nM, 10700 nM and above 100000 nM, respectively.
In the same order, the values of `Cc1cc(NCc2cccc(CN3C[C@H](O)[C@@H](O)[C@H](O)[C@H]3CO)c2)cc(C2=COCCO2)c1` [Compound 1032, (2R,3R,4R,5S)-1-{[3-({[3-(5,6-dihydro-1,4-dioxin-2-yl)-5-methylphenyl]amino}methyl)phenyl]methyl}-2-(hydroxymethyl)piperidine-3,4,5-triol] are 36 nM, 47700 nM and above 100000 nM.
Take `Cc1cc(NCc2cccc(CN3C[C@H](O)[C@@H](O)[C@H](O)[C@H]3CO)c2)cc(-c2ccc[nH]2)c1` [Compound 1033, (2R,3R,4R,5S)-2-(hydroxymethyl)-1-{[3-({[3-methyl-5-(1H-pyrrol-2-yl)phenyl]amino}methyl)phenyl]methyl}piperidine-3,4,5-triol]: the values for the concentration for half-maximal inhibition (IC50) in assay [1], in assay [2] and in assay [3] were 34 nM, above 100000 nM and above 100000 nM, respectively.
Consider `Cc1cc(NCc2cccc(CN3C[C@H](O)[C@@H](O)[C@H](O)[C@H]3CO)c2)cc(-c2cccnn2)c1` [Compound 1034, (2R,3R,4R,5S)-2-(hydroxymethyl)-1-{[3-({[3-methyl-5-(pyridazin-3-yl)phenyl]amino}methyl)phenyl]methyl}piperidine-3,4,5-triol], for which the IC50 in assay [1] came out at 57 nM; in assay [2], 10000 nM; in assay [3], 91900 nM.
With `CS(=O)(=O)c1cc(NCc2cccc(CN3C[C@H](O)[C@@H](O)[C@H](O)[C@H]3CO)c2)cc(N2CCOCC2)c1` [Compound 1036, (2R,3R,4R,5S)-2-(hydroxymethyl)-1-{[3-({[3-methanesulfonyl-5-(morpholin-4-yl)phenyl]amino}methyl)phenyl]methyl}piperidine-3,4,5-triol], the IC50 in assay [1] is 219 nM; in assay [2], 49500 nM; in assay [3], above 100000 nM.
For `N#Cc1cc(NCc2cccc(CN3C[C@H](O)[C@@H](O)[C@H](O)[C@H]3CO)c2)cc(N2CCOCC2)c1` [Compound 1042, 3-(morpholin-4-yl)-5-{[(3-{[(2R,3R,4R,5S)-3,4,5-trihydroxy-2-(hydroxymethyl)piperidin-1-yl]methyl}phenyl)methyl]amino}benzonitrile], in that order: 163 nM, 8680 nM and above 100000 nM.
For `OC[C@@H]1[C@@H](O)[C@H](O)[C@@H](O)CN1CCCCCCNc1cc(Cl)cc(-c2ncco2)c1` [Compound 1211, (2R,3R,4R,5S)-1-(6-{[3-chloro-5-(1,3-oxazol-2-yl)phenyl]amino}hexyl)-2-(hydroxymethyl)piperidine-3,4,5-triol], in that order: 72 nM, 2 nM and 326 nM.
Turning to `OC[C@@H]1[C@@H](O)[C@H](O)[C@@H](O)CN1CCCCCCNc1cc(Cl)cc(-c2ncccn2)c1` [Compound 1212, (2R,3R,4R,5S)-1-(6-{[3-chloro-5-(pyrimidin-2-yl)phenyl]amino}hexyl)-2-(hydroxymethyl)piperidine-3,4,5-triol], the IC50 came to 89 nM in assay [1], 5 nM in assay [2] and 386 nM in assay [3].
In the same order, the values of `COc1cc(NCCCCCCN2C[C@H](O)[C@@H](O)[C@H](O)[C@H]2CO)cc(-c2ncco2)c1` [Compound 1216, (2R,3R,4R,5S)-2-(hydroxymethyl)-1-(6-{[3-methoxy-5-(1,3-oxazol-2-yl)phenyl]amino}hexyl)piperidine-3,4,5-triol] are 796 nM, 2 nM and 2140 nM.
In the same order, the values of `COc1cc(NCCCCCCN2C[C@H](O)[C@@H](O)[C@H](O)[C@H]2CO)cc(-c2ncccn2)c1` [Compound 1217, (2R,3R,4R,5S)-2-(hydroxymethyl)-1-(6-{[3-methoxy-5-(pyrimidin-2-yl)phenyl]amino}hexyl)piperidine-3,4,5-triol] are 225 nM, 11 nM and 981 nM.
For `COc1cc(NCCCCCCN2C[C@H](O)[C@@H](O)[C@H](O)[C@H]2CO)cc(-c2ncc[nH]2)c1` [Compound 1219, (2R,3R,4R,5S)-2-(hydroxymethyl)-1-(6-{[3-(1H-imidazol-2-yl)-5-methoxyphenyl]amino}hexyl)piperidine-3,4,5-triol], in that order: 64 nM, 18 nM and 8670 nM.
As for `COCCCCCN(CCCNc1ccc(N=[N+]=[N-])cc1[N+](=O)[O-])CCCN1C[C@H](O)[C@@H](O)[C@H](O)[C@H]1CO` [Compound 1221, (2R,3R,4R,5S)-1-[3-({3-[(4-azido-2-nitrophenyl)amino]propyl}(5-methoxypentyl)amino)propyl]-2-(hydroxymethyl)piperidine-3,4,5-triol], the half-inhibitory concentration (IC50) is 424 nM in assay [1], 220 nM in assay [2] and 57 nM in assay [3].
In the same order, the values of `NC(=O)CCN(CCNc1ccc(-c2ncccn2)cc1[N+](=O)[O-])CCN1C[C@H](O)[C@@H](O)[C@H](O)[C@H]1CO` [Compound 1226, 3-[(2-{[2-nitro-4-(pyrimidin-2-yl)phenyl]amino}ethyl)({2-[(2R,3R,4R,5S)-3,4,5-trihydroxy-2-(hydroxymethyl)piperidin-1-yl]ethyl})amino]propanamide] are 793 nM, 1350 nM and 3210 nM.
For `O=S(=O)(Nc1cc(-c2ncccn2)ccc1NCCCCCCN1C[C@H](O)[C@@H](O)[C@H](O)[C@H]1CO)C1CC1` [Compound 1227, N-[5-(pyrimidin-2-yl)-2-({6-[(2R,3R,4R,5S)-3,4,5-trihydroxy-2-(hydroxy-methyl)piperidin-1-yl]hexyl}amino)phenyl]cyclopropanesulfonamide], the IC50 in assay [1] turned out to be 104 nM; in assay [2] it was 17 nM; in assay [3] it was 592 nM.
For `OC[C@@H]1[C@@H](O)[C@H](O)[C@@H](O)CN1CCCCCCNc1ccc(-c2ncccn2)cc1Cl` [Compound 1228, (2R,3R,4R,5S)-1-(6-{[2-chloro-4-(pyrimidin-2-yl)phenyl]amino}hexyl)-2-(hydroxymethyl)piperidine-3,4,5-triol], in that order: 61 nM, 11 nM and 838 nM.
For the compound `OC[C@@H]1[C@@H](O)[C@H](O)[C@@H](O)CN1CCCCCCNc1ccc(-c2ncccn2)cc1F` [Compound 1229, (2R,3R,4R,5S)-1-(6-{[2-fluoro-4-(pyrimidin-2-yl)phenyl]amino}hexyl)-2-(hydroxymethyl)piperidine-3,4,5-triol], the IC50 in assay [1] amounted to 70 nM; in assay [2] it was 37 nM; in assay [3], 959 nM.
Regarding `COc1cc(-c2ncccn2)ccc1NCCCCCCN1C[C@H](O)[C@@H](O)[C@H](O)[C@H]1CO` [Compound 1231, (2R,3R,4R,5S)-2-(hydroxymethyl)-1-(6-{[2-methoxy-4-(pyrimidin-2-yl)phenyl]amino}hexyl)piperidine-3,4,5-triol], the figures for the half-maximal inhibitory concentration (IC50) in assay [1], in assay [2] and in assay [3] were 67 nM, 30 nM and 2110 nM, respectively.
For `Cc1cc(-c2ncccn2)ccc1NCCCCCCN1C[C@H](O)[C@@H](O)[C@H](O)[C@H]1CO` [Compound 1233, (2R,3R,4R,5S)-2-(hydroxymethyl)-1-(6-{[2-methyl-4-(pyrimidin-2-yl)phenyl]amino}hexyl)piperidine-3,4,5-triol], in that order: 130 nM, 23 nM and 1310 nM.
In the same order, the values of `[N-]=[N+]=Nc1ccc(NCCN(CCC(N)=O)CCN2C[C@H](O)[C@@H](O)[C@H](O)[C@H]2CO)c([N+](=O)[O-])c1` [Compound 1235] are 8650 nM, 530 nM and 11400 nM.
